In US20100041597A1, “PEPTIDES TARGETED TO PROTEIN KINASE C ISOFORMS AND USES THEREOF” (priority 2005, published 2010):

Columns and labels:
[1] = molecular target: PKC-βII (Homo sapiens, UniProt P05771); experiment: In vitro competition with anti-PKC-βII antibody, Protocol B, IMR-32 cells; assay type: binding; design: PRE 3 and PRE 4 in IMR-32 Neuroblastoma Cells: Protocol B; endogenous in cells; host or cells: IMR-32; settings: PKC-βII; for Band Intensity: control band intensity 98.6, Table 9
Procedure: (§1) Peptides PRE 3 and PRE 4 (see Table 3) were tested for their ability to interfere with the binding of isoform-specific polyclonal antibodies (Santa Cruz Biotechnology, Inc.) to PKC-α, PKC-βI or PKC-βII using the general protocol described in Example 3.

[2] = molecular target: T1, PKC-α (Homo sapiens, UniProt P17252); experiment: Subcellular localisation of PKC-α in IMR-32 cells; assay type: cell-based; design: subcellular localisation of endogenous PKC-α in IMR-32 cells; endogenous in cells; host or cells: IMR-32; settings: 10 mg/ml, pinocytic endocytosis
Procedure: Peptides PRE 3 or PRE 4 (10 mg/ml) were introduced into human neuroblastoma cells (IMR-32) by pinocytic endocytosis. The cells were fixed and stained with rabbit PKC-A primary antibody and anti-rabbit Alexa-488 or Alexa-800 secondary antibody.
In most of the cells PKC-α can be seen to be located in the cytoplasm, around the nucleus and at the plasma membrane (where it becomes activated).

[3] = molecular target: T1, PKC-α; experiment: In vitro competition with anti-PKC-α antibody, Protocol B (peptide added to cell extract before electrophoresis), IMR-32 cells; assay type: binding; design: subcellular localisation of endogenous PKC-α in IMR-32 cells; endogenous in cells; host or cells: IMR-32; settings: for Inhibition (%) / Relative Intensity (%): Table 9
Procedure: as §1

[4] = In vitro toxicity test (fluorimetric DNA assay, Hoechst); assay type: cell-based, human; settings: human, IMR-32 neuroblastoma cells, with pinocytic endocytosis reagent, read-out: % survival
Procedure: (§2) In vitro cytotoxicity testing of the peptides PRE 3, PRE 4 and PRE 5 (see Table 3) was conducted following the general protocol outlined below (modified from “Fluorimetric DNA assay for cell growth estimation” Rao J, Otto W., Analytical Biochem. 207:186-192, 1992).
(§3) The assay was performed in 96 well plates, with 3,000 IMR-32 neuroblastoma cells seeded per well and 8 replicas were performed per treatment. The cells were pre-treated with either plain medium and a pinocytic endocytosis reagent (Molecular Probes) or medium containing the PRE under evaluation and the pinocytic endocytosis reagent. The cells were allowed to grow under conventional conditions for 3 days. The DNA content of each well was assessed at 24, 48 and 72 hours using Hoechst reagent according to standard procedures. The fluorescence intensity per well was measured using the plate reader “CytoFluor 2350” from Millipore. Excitation was 360 nm and emission was 460 nm. The number of cells is directly correlated to the DNA content.
(§4) The results are shown in Tables 11-13 as the average relative fluorescence intensity measured for the 8 replica wells, as well as the percentage of survival as compared with matching untreated controls.

[5] = tested on: IMR-32 neuroblastoma cells; experiment: as above; assay type: cell-based, human; settings: with pinocytic endocytosis reagent
Procedure: as §2, §3, §4

[6] = tested on: PKC-β; experiment: In vitro competition with anti-PKC-β antibody, Protocol A, IMR-32 cells; assay type: binding, human; settings: for Band Intensity / Inhibition (%) / Relative Intensity (%): PKC-β, IMR-32, Table 6
Procedure: Cell lysates from either IMR-32 (human neuroblastoma) cells or C6Cx43 cells (rat glioma transfected cells overexpressing connexin 43) were obtained using standard protocols and the proteins of the lysate were separated by SDS PAGE electrophoresis and electrotransferred onto a nitrocellulose membrane. The membrane was incubated for 30 minutes in blocking buffer (TBST) containing the test peptide at either 5× or 20× the concentrations of the primary antibody. A primary polyclonal antibody specific for PKC-α (Santa Cruz Biotechnology, Inc., CA) was then added (15 μg/ml) and the membrane incubated for a further 45 minutes. Finally, the primary antibody was detected with a secondary antibody conjugated to alkaline phosphatase using standard procedures. The intensity of the band corresponding to PKC-α was assessed by scanning and densitometry using the Gel-Pro software (Media Cybernetics) to obtain relative band intensities (average of 3 replicas). Control assays were conducted as described above except that blocking buffer without peptide was used.
Peptides PRE 1, PRE 2 and PRE 3 (see Table 3) were tested for their ability to interfere with the binding of a PKC-β-specific polyclonal antibody (Santa Cruz Biotechnology, Inc.) to PKC-β using the general protocol described in Example 1. […] It is worth noting in this regard that PKC-α and PKC-β belong to the same sub-group of PKCs (cPKCs).

PKC-βII, sequence (P05771 1-673 isoform P05771-2): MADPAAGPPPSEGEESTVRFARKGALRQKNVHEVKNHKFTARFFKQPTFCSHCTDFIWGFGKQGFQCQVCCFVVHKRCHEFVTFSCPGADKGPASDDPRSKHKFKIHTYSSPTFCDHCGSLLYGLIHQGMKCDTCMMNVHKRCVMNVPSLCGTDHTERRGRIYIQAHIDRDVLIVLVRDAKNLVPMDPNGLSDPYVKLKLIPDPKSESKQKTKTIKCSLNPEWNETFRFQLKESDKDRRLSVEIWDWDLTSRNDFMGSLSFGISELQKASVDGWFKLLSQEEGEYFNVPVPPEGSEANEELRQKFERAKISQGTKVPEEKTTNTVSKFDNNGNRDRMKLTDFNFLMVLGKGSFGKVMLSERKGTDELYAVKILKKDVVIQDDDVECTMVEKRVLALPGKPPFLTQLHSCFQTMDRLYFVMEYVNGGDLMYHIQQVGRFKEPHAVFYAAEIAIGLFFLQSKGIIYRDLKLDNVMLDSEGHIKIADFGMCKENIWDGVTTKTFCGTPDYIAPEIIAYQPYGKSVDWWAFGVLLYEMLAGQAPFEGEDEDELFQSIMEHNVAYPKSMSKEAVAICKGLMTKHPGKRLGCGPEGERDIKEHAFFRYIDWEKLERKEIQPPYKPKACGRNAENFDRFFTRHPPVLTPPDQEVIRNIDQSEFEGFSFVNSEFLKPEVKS

inhibition at 0.1 mg ([1]; 100 μg, Table 9): 100%
remaining activity at 0.1 mg ([1]; 100 μg, Table 9, read-out: Relative Intensity (%)): 0%
Band Intensity ([1]; 100 μg): 0.0
inhibition at 0.2 mg ([1]; 200 μg, Table 9): 100%
remaining activity at 0.2 mg ([1]; 200 μg, Table 9, read-out: Relative Intensity (%)): 0%
Band Intensity ([1]; 200 μg): 0.0
inhibition at 0.3 mg ([1]; 300 μg, Table 9): 100%
remaining activity at 0.3 mg ([1]; 300 μg, Table 9, read-out: Relative Intensity (%)): 0%
Band Intensity ([1]; 300 μg): 0.0
Band Intensity ([3]; 100 μg, PKC-α, IMR-32, Table 7): 0.0
inhibition at 0.1 mg ([3]; 100 μg, PKC-α, IMR-32, Table 7): 100%
remaining activity at 0.1 mg ([3]; 100 μg, PKC-α, IMR-32, Table 7, read-out: Relative Intensity (%)): 0%
Inhibition (%) ([3]; 100 μg, PKC-α): 100.0%
Relative Intensity (%) ([3]; 100 μg, PKC-α): 0.0%
Band Intensity ([3]; 100 μg, PKC-α, control band intensity 302.5, Table 9): 0.0
Band Intensity ([3]; 200 μg, PKC-α, IMR-32, Table 7): 0.0
inhibition at 0.2 mg ([3]; 200 μg, PKC-α, IMR-32, Table 7): 100%
remaining activity at 0.2 mg ([3]; 200 μg, PKC-α, IMR-32, Table 7, read-out: Relative Intensity (%)): 0%
Inhibition (%) ([3]; 200 μg, PKC-α): 100.0%
Relative Intensity (%) ([3]; 200 μg, PKC-α): 0.0%
Band Intensity ([3]; 200 μg, PKC-α, control band intensity 302.5, Table 9): 0.0
Band Intensity ([3]; 300 μg, PKC-α, IMR-32, Table 7): 0.0
inhibition at 0.3 mg ([3]; 300 μg, PKC-α, IMR-32, Table 7): 100%
remaining activity at 0.3 mg ([3]; 300 μg, PKC-α, IMR-32, Table 7, read-out: Relative Intensity (%)): 0%
Inhibition (%) ([3]; 300 μg, PKC-α): 100.0%
Relative Intensity (%) ([3]; 300 μg, PKC-α): 0.0%
Band Intensity ([3]; 300 μg, PKC-α, control band intensity 302.5, Table 9): 0.0
Substance: Ac-AKGIQEVKGGDAQNLIGISI-NH2 [PRE 3]
effect on subcellular localisation of PKC-α [2]: does not alter the subcellular localisation of PKC-α
effect on antibody binding to PKC-α [3]: effectively interfered with PKC-α antibody binding to PKC-α
viability at 24 h, 2500 µg/mL ([4]; 2.5 mg/ml, 24 h): 127%
viability at 48 h, 2500 µg/mL ([4]; 2.5 mg/ml, 48 h): 150%
viability at 72 h, 2500 µg/mL ([4]; 2.5 mg/ml, 72 h): 123%
viability at 24 h, 10000 µg/mL ([4]; 10 mg/ml, 24 h): 120%
viability at 48 h, 10000 µg/mL ([4]; 10 mg/ml, 48 h): 129%
viability at 72 h, 10000 µg/mL ([4]; 10 mg/ml, 72 h): 117%
AFI (Average fluorescence intensity) ([5]; 2.5 mg/ml, 24 h): 193
AFI (Average fluorescence intensity) ([5]; 2.5 mg/ml, 48 h): 389
AFI (Average fluorescence intensity) ([5]; 2.5 mg/ml, 72 h): 871
AFI (Average fluorescence intensity) ([5]; 10 mg/ml, 24 h): 182
AFI (Average fluorescence intensity) ([5]; 10 mg/ml, 48 h): 334
AFI (Average fluorescence intensity) ([5]; 10 mg/ml, 72 h): 830
effect on antibody binding to PKC-β [6]: did not show an effect on antibody binding to PKC-β
Band Intensity ([6]; 75 μg): 1.900
Inhibition (%) ([6]; 75 μg): 0.0%
Relative Intensity (%) ([6]; 75 μg): 102.4%
Band Intensity ([6]; 300 μg): 1.900
Inhibition (%) ([6]; 300 μg): 0.0%
Relative Intensity (%) ([6]; 300 μg): 102.4%
Band Intensity ([6]; 600 μg): 1.847
Inhibition (%) ([6]; 600 μg): 0.0%
Relative Intensity (%) ([6]; 600 μg): 99.6%
